Reference: article PMC7955127, “Preclinical small molecule WEHI-7326 overcomes drug resistance and elicits response in patient-derived xenograft models of human treatment-refractory tumors” (Cell Death & Disease, 2021)

How the values were obtained:
Plasma protein binding = assay type: in vitro ADME; conditions: mouse plasma
Source text: a Measured physicochemical and solubility data for WEHI-7326. […] Microsomal-predicted EH values are included.

[1] = Fourteen day maximum tolerated dose study, twice weekly i.v. (non-GLP); assay type: in vivo
Experimental: Fourteen day maximum tolerated dose (MTD) study of WEHI-7326 dihydrochloride following twice weekly intravenous administration in female Sprague-Dawley rats. All treatments were administered i.v. (tail vein) in a dosing volume of 10 mL/kg. Treatment was administered in a staggered manner, beginning with WEHI-7326 at 7.5 mg/kg and then increasing the dose on subsequent days. For all data calculations and presentation, the first day of treatment for each group is designated as Day 1. One animal died immediately following a single dose of WEHI-7326 at 60 mg/kg (Group 2). The remaining scheduled treatments at this dose were cancelled and dosing recommenced at a reduced dose of 10 mg/kg to the remaining 3 animals in this group. Intravenous (tail vein) treatment of female Sprague-Dawley rats with WEHI-7326 was tolerated without serious adverse events or body weight loss exceeding the ethical limit at doses of 7.5 and 10 mg/kg in this study.
Sixteen female Sprague-Dawley rats were microchipped and randomised into four groups of four based on body weight two days prior to the first day’s treatment. The test article was to be tested at four dose concentrations of 7.5 mg/kg, 15 mg/kg, 30 mg/kg and 60 mg/kg, administered i.v. via tail vein injection at a dose rate of 10 mL/kg. […] Animals were to be dosed on their respective Study Day 1, then twice weekly over two weeks. Body weights were measured once prior to dose administration, then daily for the duration of the study and at termination. Clinical observations were performed on a daily basis. Due to the immediate death of one animal dosed with WEHI-7326 at 60 mg/kg and subsequent development of signs of toxicity in animals that had received three doses at 15 mg/kg and two doses at 30 mg/kg, the dose level for the remaining three animals in Group 4 was reduced to 10 mg/kg (four doses). As treatment with WEHI-7326 was tolerated without serious adverse events or body weight loss exceeding the ethical limit at doses of 7.5 and 10 mg/kg in this study, the maximum tolerated dose was determined to be 10 mg/kg.

AH406 LUSC PDX = test: LUSC PDX model AH406; assay type: in vivo, NOD-SCID-IL2Rγc–/– mice; conditions: WEHI-7326 20 mg/kg i.v. biweekly, docetaxel 10 mg/kg i.p. once
Experimental: LUSC PDXs were generated as described in[25]. PDXs at passage 4 were defrosted and washed with PBS before counting. 200,000 to 500,000 cells were then injected in a 50:50 PBS:Matrigel mix into the flanks of NOD-SCID-IL2Rγc–/– male mice. Tumors were measured twice weekly with calipers and treatment started when tumors were between 70–120 mm^3. Mice were assigned to treatment groups based on average tumor volume per group. Mice were culled when tumors reached a volume of 600 mm^3.

[2] = system: H1437 (non-small cell lung carcinoma) xenograft; test: H1437 tumor xenograft in nude mice; assay type: in vivo, BALB/c nude mice; conditions: i.p. three times weekly
Experimental: Tumor cell lines LIM2537, U87MGΔ2–7EGFR or H1437 were collected by trypsinization, counted and injected at 5 × 10^6 cells/ site subcutaneously on both flanks of BALB/c nude mice. Treatment with vehicle control or WEHI-7326 at given dose was initiated after 5 days. Drug or vehicle (100 μl) was injected intraperitoneally three times weekly. Control group and treatment group consisted of 8 mice each. Tumors were measured twice weekly with calipers. Tumor volumes were estimated using the modified ellipsoid formula V = 1/2 (length × width^2). The experiments were terminated when tumors in the control group started ulcerating or exceeded 17 mm in length, in line with the LICR/DoS Animal Ethics Committee guidelines (11/05 A).

LoVo = test: Cell growth inhibition assay, LoVo; assay type: cell-based; conditions: Homo sapiens, colon carcinoma, 72 h viability assay, CellTiterGlo, mean of 3 ± SEM, read-out: IC50 (inhibition of cellular proliferation)
Experimental: Cells were plated at a density of between 500 to 5000 cells per well for adherent cell lines depending on doubling time, and 15,000 cells per well for lymphoblastic leukemia cell lines, in a 96-well plate in 200 μl of growth media. Plates were incubated overnight at 37 °C before adding the inhibitors. Inhibitors were serially diluted from the stock solutions in complete medium and added to the cells. […] Cell viability was assessed by the AlamarBlue (Invitrogen) or CellTiterBlue/Glo (Promega) method according to manufacturer’s instructions. The curve fits and IC50 values were generated in PRISM (GraphPad, San Diego, CA).

[3] = female rats, 7.5 mg/kg twice weekly i.v.
[4] = female rats, 10 mg/kg twice weekly i.v.
[5] = female rats, 15 mg/kg twice weekly i.v.
[6] = female rats, 30 mg/kg twice weekly i.v.

## COc1ccc(CNc2nc(NCc3ccc(CN)cc3)nc(NN3CC(=O)NC3=O)n2)cc1 [WEHI-7326]
Plasma protein binding
  Protein binding: 61 % bound
[1]; female Sprague-Dawley rats, 60 mg/kg i.v.
  Lethality: acutely lethal
[1]; [3]
  Mild red staining right fore limb (number of animals): 1/4
  No remarkable observation (number of animals): 3/4
[1]; [4]
  Mild piloerection (number of animals): 3/3
  Mild red staining of snout, fore limbs and/or head (number of animals): 3/3
  Urine-stained fur (number of animals): 1/3
[1]; [5]
  Discharge both eyes (number of animals): 1/4
  Early termination (StudyDay 9) due to adverse clinical signs and excess body weight loss (number of animals): 3/4
  Mild red staining of eyes and or head (number of animals): 2/4
  Mild squinting both eyes (number of animals): 1/4
  Mild/moderate hunched posture (number of animals): 4/4
  Mild/moderate piloerection (number of animals): 4/4
  Urine-stained fur (number of animals): 1/4
[1]; [6]
  Early termination (StudyDay 5) due to adverse clinical signs and excess body weight loss (number of animals): 4/4
  Mild excess salivation (number of animals): 2/4
  Mild piloerection (number of animals): 4/4
  Mild red staining of limbs, eyes, snout and or head (number of animals): 4/4
  Mild squinting both eyes (number of animals): 4/4
  Mild/moderate hunched posture (number of animals): 4/4
  Mild/moderate labored breathing (number of animals): 4/4
  Mild/moderate lethargy (number of animals): 4/4
  Urine-stained fur (number of animals): 4/4
[1]; female rats, 60 mg/kg i.v., single dose
  Found dead immediately after administration (number of animals): 1/1
[1]; rat, in vivo, iv, female Sprague-Dawley rats, twice weekly i.v., 14 day
  MTD at 14 days: 10 mg/kg
AH406 LUSC PDX
  Median survival: 29 days
[2]
  Tumor growth: effective in reducing tumor growth
LoVo
  IC50: 42.2 ± 9.9 nM
